Test results reported in US20100267803A1, “Regulators Of Fat Metabolism As Anti-Cancer Targets” (The Research Foundation of State University Of New York, priority 2008, published 2010).

Legend:
Format in all cases: cell-based, human
[1] = test system: FADS2 mRNA; assay: qRT-PCR of FADS2 mRNA in BT474 cells; details: shRNA or 20 μM GW9662 for 48 h
Procedure: (§1) FIG. 4 NR1D1 and PBP coordinate fatty acid metabolism in breast cancer cells. (a) BT474, MDA-MB-361, MCF-7 and HMEC cells were stained with Oil-Red O lipid and hematoxylin nuclear stains. (b) Fat stores were quantified by BODIPY 493/503 lipid probe staining (Error bars are s.d from 3 individual experiments). (c) FASN, ACLY, ACACA and FADS2 mRNA levels of BT474 cells treated with luciferase (control), PBP or NR1D1 shRNAs, or with vehicle and 20 μM of GW9662 for 48 h, analyzed by qRT-PCRs. (Error bars are s.d from 3 experiments; ***P<0.001, **P=0.005) (d) BT474 cells were transfected with FASN, ACLY and ACACA shRNAs and co-transfected with GFP. Transfected cells were counted at 24 h and 72 h and the 72h-to-24 h ratio for each shRNA was calculated and expressed as % of the control shRNA (luciferase). (Error bars are s.d from 3 individual experiments; **P<0.01, ***P<0.002). (e) BODIPY images and (f) quantification of BT474 cells transfected with luciferase (control), PBP or NR1D1 shRNAs and co-transfected with DsRed (Error bars are s.d from 3 individual experiments; ***P<0.03). Arrows indicate transfected cells.
(§2) Cell viability—apoptosis assays. […] At least 30 fields were imaged per single experiment. […] Immunoblotting. […] PCR reaction was run using standard conditions.

[2] = test system: ACACA mRNA; assay: qRT-PCR of ACACA mRNA in BT474 cells; details: shRNA or 20 μM GW9662 for 48 h
Procedure: as §1, §2

[3] = test system: nonoverexpressing breast cancer cell lines (MCF-7, MDA-MB-453, MDA-MB-468), HMECs, HEK 293FT; assay: alamarBlue proliferation of shRNA-transfected ERBB2 non-overexpressing cell lines; details: MCF-7, MDA-MB-453, MDA-MB-468, HMEC, shRNA transfection
Text: (§3) FIG. 1 An RNAi screen targeting genes overexpressed in breast cancer. (a) Three transfection mixes were produced for each shRNA and each was transfected into triplicate wells of BT474 cells. AlamarBlue was used to monitor cell proliferation and viability. […] (b) The genetic and functional linkage of NR1D1 and PBP. Mb refers to map position on chromosome 17. (c) ERBB2-overexpressing (OEX) and ERBB2 non-overexpressing (non-OEX) breast cancer cell lines as well as the (non-OEX) HMEC and HEK 293 cells were transfected and assayed as in (a). […] Genes clustered with ERBB2 are boxed.
(§4) To assess the specificity of effect of each shRNA on cell proliferation, those causing the greatest decrease in BT474 cell proliferation were transfected in a variety of cell lines, including ERBB2 overexpressing (BT474, MDA-MB-361) and nonoverexpressing breast cancer cell lines (MCF-7, MDA-MB-453, MDA-MB-468), normal human mammary epithelial cells (HMECs) and a non-breast tumorigenic cell line (HEK 293FT). […] PBP, NRID1 and PFN2 shRNAs clustered with ERBB2.
(§5) RNAi screen, transfections and constructs. The flag-RevErba (flag-NR1D1) overexpression construct was a generous gift of M. Lazar. The LSXN-neu* (ERBB2) overexpression construct was a generous gift of L. Petti. shRNA constructs were expressed from the pSHAG-MAGIC 2 (pSM2) vector and derived from a genome-wide shRNA library^31. ShRNAs targeting the firefly (Photinus pyralis) luciferase gene were used as controls. Transfection efficiency was monitored by co-transfection with a modified MSCV-Puro vector expressing green fluorescent protein (GFP). The alamarBlue (Biosource) assay was performed 96 h post-transfection, since BT474 cells have a population doubling time of ˜100 hours. […] For quantification of alamarBlue we used a BioTek HT Synergy plate reader. AlamarBlue values from the RNAi screens on other cell types were also calculated as above and subjected to hierarchical cluster analysis using Cluster 2.11 (M. Eisen Lab).

[4] = test system: ERBB2 overexpressing (BT474, MDA-MB-361) breast cancer cell lines; assay: alamarBlue proliferation of shRNA-transfected ERBB2-overexpressing cell lines; details: shRNA transfection
Text: as §3, §4, §5

[5] = test system: BT474 cells; assay: Neutral fat stores by BODIPY 493/503 staining; details: first 48 h after transfection
Procedure: as §1
Metabolic assays. […] Transfected cells were monitored by co-transfecting with the pDsRed-Monomer-N1 vector (Clontech). Cells were imaged and analyzed using the In Cell Analyzer 1000—In Cell Investigator 3.4 system (GE Biosciences), as described above. […]

[6] = test system: ACLY mRNA; assay: qRT-PCR of ACLY mRNA in BT474 cells; details: shRNA or 20 μM GW9662 for 48 h
Procedure: as §1, §2

Substance	FADS2 transcript levels [1]	ACACA transcript level [2]	effect on other cell lines or HMECs [3]	viability of ERBB2-positive cells [4]	decrease in fat stores [5] [%]	ACLY transcript level [6]
PBP shRNA: shRNA, mature sequence CCGAGTTCCTCTTATCCTA (shRNA)	downregulated	reduced	without effect on other cell lines or HMECs	specifically decreased the viability of ERBB2-positive cells	30	reduced
NR1D1 shRNA: shRNA, mature sequence GGCATGGTGTTACTGTGTA (shRNA)	downregulated	reduced	without effect on other cell lines or HMECs	specifically decreased the viability of ERBB2-positive cells	47	reduced
